Laboratory results published in the supplement of paper PMC10307832.

Assays:
Assay in all cases: relative viability (nuclei count vs DMSO), 5 days (fraction); higher = more cells survive
HARA = tested on: HARA
Summary of the method: (§1)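 A single step with final 0.05% Triton X-100, 1% formaldehyde and 1 ug/ml Hoechst fixed the cells and stained nuclei 5 days after treatment. Lung cancer cell lines in 1536-well plates had been treated by pin tool the day after seeding with one drug alone or a fixed anchor-drug dose plus five library-drug doses (not always all listed) in √10 steps, and nuclei were counted on 4× images. Relative viability is the ratio of nuclei in treated wells to nuclei in vehicle wells, taken as the median of duplicate plates.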

NCI-H2023 = tested on: NCI-H2023
Summary of the method: as §1

NCI-H3122 = tested on: NCI-H3122
Summary of the method: as §1

BEN = tested on: BEN
Summary of the method: as §1

NCI-H596 = tested on: NCI-H596
Summary of the method: as §1

NCI-H23 = tested on: NCI-H23
Summary of the method: as §1

HCC-44 = tested on: HCC-44
Summary of the method: as §1

NCI-H1395 = tested on: NCI-H1395
Summary of the method: as §1

LOU-NH91 = tested on: LOU-NH91
Summary of the method: as §1

201T = tested on: 201T
Summary of the method: as §1

NCI-H2347 = tested on: NCI-H2347
Summary of the method: as §1

NCI-H2087 = tested on: NCI-H2087
Summary of the method: as §1

NCI-H838 = tested on: NCI-H838
Summary of the method: as §1

NCI-H441 = tested on: NCI-H441
Summary of the method: as §1

EMC-BAC-2 = tested on: EMC-BAC-2
Summary of the method: as §1

NCI-H647 = tested on: NCI-H647
Summary of the method: as §1

NCI-H650 = tested on: NCI-H650
Summary of the method: as §1

LCLC-103H = tested on: LCLC-103H
Summary of the method: as §1

NCI-H2126 = tested on: NCI-H2126
Summary of the method: as §1

NCI-H1993 = tested on: NCI-H1993
Summary of the method: as §1

NCI-H727 = tested on: NCI-H727
Summary of the method: as §1

## O=c1cc(N2CCOCC2)oc2c(-c3cccc4c3sc3ccccc34)cccc12 + CS(=O)(=O)N1CCN(Cc2cc3nc(-c4cccc5[nH]ncc45)nc(N4CCOCC4)c3s2)CC1 [Pictilisib] (partner 1 µM)
HARA; first compound 0.01 µM
  relative viability: 0.315
HARA; first compound 0.03162 µM
  relative viability: 0.381
HARA; first compound 0.1 µM
  relative viability: 0.435
HARA; first compound 0.3162 µM
  relative viability: 0.362
HARA; first compound 1 µM
  relative viability: 0.457
NCI-H2023; first compound 0.01 µM
  relative viability: 0.306
NCI-H2023; first compound 0.03162 µM
  relative viability: 0.262
NCI-H2023; first compound 0.1 µM
  relative viability: 0.266
NCI-H2023; first compound 0.3162 µM
  relative viability: 0.275
NCI-H2023; first compound 1 µM
  relative viability: 0.245
NCI-H3122; first compound 0.01 µM
  relative viability: 0.623
NCI-H3122; first compound 0.03162 µM
  relative viability: 0.553
NCI-H3122; first compound 0.1 µM
  relative viability: 0.651
NCI-H3122; first compound 0.3162 µM
  relative viability: 0.552
NCI-H3122; first compound 1 µM
  relative viability: 0.57
BEN; first compound 0.01 µM
  relative viability: 0.593
BEN; first compound 0.03162 µM
  relative viability: 0.579
BEN; first compound 0.1 µM
  relative viability: 0.593
BEN; first compound 0.3162 µM
  relative viability: 0.655
BEN; first compound 1 µM
  relative viability: 0.535
NCI-H596; first compound 0.01 µM
  relative viability: 0.442
NCI-H596; first compound 0.03162 µM
  relative viability: 0.39
NCI-H596; first compound 0.1 µM
  relative viability: 0.38
NCI-H596; first compound 0.3162 µM
  relative viability: 0.395
NCI-H596; first compound 1 µM
  relative viability: 0.38
NCI-H23; first compound 0.01 µM
  relative viability: 0.529
NCI-H23; first compound 0.03162 µM
  relative viability: 0.422
NCI-H23; first compound 0.3162 µM
  relative viability: 0.513
NCI-H23; first compound 1 µM
  relative viability: 0.442
HCC-44; first compound 0.01 µM
  relative viability: 0.638
HCC-44; first compound 0.03162 µM
  relative viability: 0.659
HCC-44; first compound 0.1 µM
  relative viability: 1.87
HCC-44; first compound 0.3162 µM
  relative viability: 0.543
HCC-44; first compound 1 µM
  relative viability: 0.549
NCI-H1395; first compound 0.01 µM
  relative viability: 0.587
NCI-H1395; first compound 0.03162 µM
  relative viability: 0.653
NCI-H1395; first compound 0.1 µM
  relative viability: 0.484
NCI-H1395; first compound 0.3162 µM
  relative viability: 0.623
NCI-H1395; first compound 1 µM
  relative viability: 0.627
LOU-NH91; first compound 0.01 µM
  relative viability: 0.476
LOU-NH91; first compound 0.03162 µM
  relative viability: 0.533
LOU-NH91; first compound 0.1 µM
  relative viability: 0.525
LOU-NH91; first compound 0.3162 µM
  relative viability: 0.514
LOU-NH91; first compound 1 µM
  relative viability: 0.531
201T; first compound 0.01 µM
  relative viability: 0.698
201T; first compound 0.03162 µM
  relative viability: 0.67
201T; first compound 0.1 µM
  relative viability: 0.692
201T; first compound 0.3162 µM
  relative viability: 0.705
201T; first compound 1 µM
  relative viability: 0.661
NCI-H2347; first compound 0.01 µM
  relative viability: 0.671
NCI-H2347; first compound 0.03162 µM
  relative viability: 0.442
NCI-H2347; first compound 0.1 µM
  relative viability: 0.502
NCI-H2347; first compound 0.3162 µM
  relative viability: 0.802
NCI-H2347; first compound 1 µM
  relative viability: 0.468
NCI-H2087; first compound 0.01 µM
  relative viability: 0.745
NCI-H2087; first compound 0.03162 µM
  relative viability: 0.861
NCI-H2087; first compound 0.1 µM
  relative viability: 0.851
NCI-H2087; first compound 0.3162 µM
  relative viability: 0.783
NCI-H2087; first compound 1 µM
  relative viability: 1
NCI-H838; first compound 0.01 µM
  relative viability: 0.427
NCI-H838; first compound 0.03162 µM
  relative viability: 0.389
NCI-H838; first compound 0.1 µM
  relative viability: 0.434
NCI-H838; first compound 0.3162 µM
  relative viability: 0.472
NCI-H838; first compound 1 µM
  relative viability: 0.388
NCI-H441; first compound 0.01 µM
  relative viability: 0.561
NCI-H441; first compound 0.03162 µM
  relative viability: 0.483
NCI-H441; first compound 0.1 µM
  relative viability: 0.487
NCI-H441; first compound 0.3162 µM
  relative viability: 0.438
NCI-H441; first compound 1 µM
  relative viability: 0.579
EMC-BAC-2; first compound 0.01 µM
  relative viability: 0.372
EMC-BAC-2; first compound 0.03162 µM
  relative viability: 0.518
EMC-BAC-2; first compound 0.1 µM
  relative viability: 0.559
EMC-BAC-2; first compound 0.3162 µM
  relative viability: 0.574
EMC-BAC-2; first compound 1 µM
  relative viability: 0.517
NCI-H647; first compound 0.01 µM
  relative viability: 0.437
NCI-H647; first compound 0.3162 µM
  relative viability: 0.578
NCI-H647; first compound 1 µM
  relative viability: 0.439
NCI-H650; first compound 0.01 µM
  relative viability: 0.907
NCI-H650; first compound 0.03162 µM
  relative viability: 1
NCI-H650; first compound 0.3162 µM
  relative viability: 0.896
NCI-H650; first compound 1 µM
  relative viability: 1.04
LCLC-103H; first compound 0.01 µM
  relative viability: 0.64
LCLC-103H; first compound 0.03162 µM
  relative viability: 0.664
LCLC-103H; first compound 0.1 µM
  relative viability: 0.649
LCLC-103H; first compound 0.3162 µM
  relative viability: 0.627
LCLC-103H; first compound 1 µM
  relative viability: 0.577
NCI-H2126; first compound 0.01 µM
  relative viability: 0.471
NCI-H2126; first compound 0.03162 µM
  relative viability: 0.449
NCI-H2126; first compound 0.1 µM
  relative viability: 0.529
NCI-H2126; first compound 0.3162 µM
  relative viability: 0.517
NCI-H2126; first compound 1 µM
  relative viability: 0.479
NCI-H1993; first compound 0.01 µM
  relative viability: 0.937
NCI-H1993; first compound 0.03162 µM
  relative viability: 0.945
NCI-H1993; first compound 0.1 µM
  relative viability: 0.812
NCI-H1993; first compound 0.3162 µM
  relative viability: 0.759
NCI-H1993; first compound 1 µM
  relative viability: 0.799
NCI-H727; first compound 0.01 µM
  relative viability: 0.587
NCI-H727; first compound 0.03162 µM
  relative viability: 0.355
NCI-H727; first compound 0.1 µM
  relative viability: 0.467
NCI-H727; first compound 0.3162 µM
  relative viability: 0.39
NCI-H727; first compound 1 µM
  relative viability: 0.266
